± gives the expanded uncertainty stated by the source.
Settings: 101.33 kPa, Liquid; for mass density: Vibrating tube method

## CCCCCCCC/C=C\CCCCCCCCCCCC(=O)OC [methyl (Z)-13-docosenoate]
278.15 K
  viscosity: 18.09 ± 0.23 mPa·s
  mass density: 881.6 ± 1 kg/m3
283.15 K
  viscosity: 14.94 ± 0.19 mPa·s
  mass density: 877.9 ± 1 kg/m3
288.15 K
  viscosity: 12.56 ± 0.16 mPa·s
  mass density: 874.3 ± 1 kg/m3
293.15 K
  viscosity: 10.66 ± 0.14 mPa·s
  mass density: 870.7 ± 1 kg/m3
298.15 K
  viscosity: 9.141 ± 0.12 mPa·s
  mass density: 867.1 ± 1 kg/m3
303.15 K
  viscosity: 7.907 ± 0.1 mPa·s
  mass density: 863.6 ± 1 kg/m3
308.15 K
  viscosity: 6.917 ± 0.09 mPa·s
  mass density: 860 ± 1 kg/m3
313.15 K
  viscosity: 5.958 ± 0.078 mPa·s
  mass density: 856.5 ± 1 kg/m3
318.15 K
  viscosity: 5.402 ± 0.071 mPa·s
  mass density: 853 ± 1 kg/m3
323.15 K
  viscosity: 4.76 ± 0.063 mPa·s
  mass density: 849.4 ± 1 kg/m3
328.15 K
  viscosity: 4.331 ± 0.058 mPa·s
  mass density: 845.9 ± 1 kg/m3
333.15 K
  viscosity: 3.91 ± 0.053 mPa·s
  mass density: 842.4 ± 1 kg/m3
338.15 K
  viscosity: 3.548 ± 0.048 mPa·s
  mass density: 839 ± 1 kg/m3
343.15 K
  viscosity: 3.234 ± 0.044 mPa·s
  mass density: 835.5 ± 1 kg/m3
348.15 K
  viscosity: 2.961 ± 0.041 mPa·s
  mass density: 832 ± 1 kg/m3
353.15 K
  viscosity: 2.707 ± 0.038 mPa·s
  mass density: 828.6 ± 1 kg/m3
358.15 K
  viscosity: 2.51 ± 0.035 mPa·s
  mass density: 825.1 ± 1 kg/m3
363.15 K
  viscosity: 2.322 ± 0.033 mPa·s
  mass density: 821.7 ± 1 kg/m3

## CC/C=C\C/C=C\C/C=C\CCCCCCCC(=O)OC [methyl (Z,Z,Z)-9,12,15-octadecatrienoate]
278.15 K
  viscosity: 6.361 ± 0.083 mPa·s
  mass density: 913.2 ± 1 kg/m3
283.15 K
  viscosity: 5.618 ± 0.074 mPa·s
  mass density: 909.5 ± 1 kg/m3
288.15 K
  viscosity: 5.003 ± 0.066 mPa·s
  mass density: 905.7 ± 1 kg/m3
293.15 K
  viscosity: 4.484 ± 0.06 mPa·s
  mass density: 901.9 ± 1 kg/m3
298.15 K
  viscosity: 4.043 ± 0.054 mPa·s
  mass density: 898.2 ± 1 kg/m3
303.15 K
  viscosity: 3.667 ± 0.05 mPa·s
  mass density: 894.5 ± 1 kg/m3
308.15 K
  viscosity: 3.341 ± 0.046 mPa·s
  mass density: 890.7 ± 1 kg/m3
313.15 K
  viscosity: 2.925 ± 0.04 mPa·s
  mass density: 887 ± 1 kg/m3
318.15 K
  viscosity: 2.675 ± 0.037 mPa·s
  mass density: 883.3 ± 1 kg/m3
323.15 K
  viscosity: 2.472 ± 0.035 mPa·s
  mass density: 879.6 ± 1 kg/m3
328.15 K
  viscosity: 2.303 ± 0.033 mPa·s
  mass density: 876 ± 1 kg/m3
333.15 K
  viscosity: 2.123 ± 0.03 mPa·s
  mass density: 872.3 ± 1 kg/m3
338.15 K
  viscosity: 1.966 ± 0.029 mPa·s
  mass density: 868.6 ± 1 kg/m3
343.15 K
  viscosity: 1.817 ± 0.027 mPa·s
  mass density: 864.9 ± 1 kg/m3
348.15 K
  viscosity: 1.688 ± 0.025 mPa·s
  mass density: 861.2 ± 1 kg/m3
353.15 K
  viscosity: 1.583 ± 0.024 mPa·s
  mass density: 857.6 ± 1 kg/m3
358.15 K
  viscosity: 1.488 ± 0.023 mPa·s
  mass density: 853.9 ± 1 kg/m3
363.15 K
  viscosity: 1.402 ± 0.022 mPa·s
  mass density: 850.3 ± 1 kg/m3
368.15 K
  viscosity: 1.327 ± 0.021 mPa·s
373.15 K
  viscosity: 1.253 ± 0.02 mPa·s

## CCCCCCCC/C=C\CCCCCCCCCC(=O)OC [methyl cis-11-eicosenoate]
278.15 K
  viscosity: 14.34 ± 0.22 mPa·s
  mass density: 884.8 ± 1.2 kg/m3
283.15 K
  viscosity: 11.97 ± 0.19 mPa·s
  mass density: 881.1 ± 1.2 kg/m3
288.15 K
  viscosity: 10.13 ± 0.16 mPa·s
  mass density: 877.5 ± 1.2 kg/m3
293.15 K
  viscosity: 8.667 ± 0.14 mPa·s
  mass density: 873.8 ± 1.2 kg/m3
298.15 K
  viscosity: 7.488 ± 0.12 mPa·s
  mass density: 870.2 ± 1.2 kg/m3
303.15 K
  viscosity: 6.528 ± 0.1 mPa·s
  mass density: 866.6 ± 1.2 kg/m3
308.15 K
  viscosity: 5.738 ± 0.09 mPa·s
  mass density: 863 ± 1 kg/m3
313.15 K
  viscosity: 5.08 ± 0.08 mPa·s
  mass density: 859.5 ± 1.2 kg/m3
318.15 K
  viscosity: 4.529 ± 0.072 mPa·s
  mass density: 855.9 ± 1.2 kg/m3
323.15 K
  viscosity: 4.062 ± 0.065 mPa·s
  mass density: 852.3 ± 1.2 kg/m3
328.15 K
  viscosity: 3.665 ± 0.059 mPa·s
  mass density: 848.8 ± 1.2 kg/m3
333.15 K
  viscosity: 3.323 ± 0.054 mPa·s
  mass density: 845.2 ± 1.2 kg/m3
338.15 K
  viscosity: 3.028 ± 0.049 mPa·s
  mass density: 841.7 ± 1.2 kg/m3
343.15 K
  viscosity: 2.771 ± 0.045 mPa·s
  mass density: 838.2 ± 1.2 kg/m3
348.15 K
  viscosity: 2.546 ± 0.042 mPa·s
  mass density: 834.6 ± 1.2 kg/m3
353.15 K
  viscosity: 2.348 ± 0.039 mPa·s
  mass density: 831.1 ± 1.2 kg/m3
358.15 K
  viscosity: 2.174 ± 0.036 mPa·s
  mass density: 827.6 ± 1.2 kg/m3
363.15 K
  viscosity: 2.019 ± 0.034 mPa·s
  mass density: 824.1 ± 1.2 kg/m3
368.15 K
  viscosity: 1.881 ± 0.032 mPa·s
  mass density: 820.7 ± 1.2 kg/m3
373.15 K
  viscosity: 1.758 ± 0.03 mPa·s
  mass density: 817.3 ± 1.2 kg/m3

## CCCCCCCCCCCCCCCCCCCCCC(=O)OC [methyl docosanoate]
333.15 K
  viscosity: 4.749 ± 0.063 mPa·s
  mass density: 834.5 ± 1 kg/m3
338.15 K
  viscosity: 4.274 ± 0.057 mPa·s
  mass density: 831 ± 1 kg/m3
343.15 K
  viscosity: 3.866 ± 0.052 mPa·s
  mass density: 827.5 ± 1 kg/m3
348.15 K
  viscosity: 3.513 ± 0.048 mPa·s
  mass density: 824.1 ± 1 kg/m3
353.15 K
  viscosity: 3.207 ± 0.044 mPa·s
  mass density: 820.6 ± 1 kg/m3
358.15 K
  viscosity: 2.939 ± 0.041 mPa·s
  mass density: 817.2 ± 1 kg/m3
363.15 K
  viscosity: 2.709 ± 0.038 mPa·s
  mass density: 813.7 ± 1 kg/m3
368.15 K
  viscosity: 2.502 ± 0.035 mPa·s
  mass density: 810.3 ± 1 kg/m3
373.15 K
  viscosity: 2.317 ± 0.033 mPa·s
  mass density: 806.9 ± 1 kg/m3

## CCCCCCCCCCCCCCCCCCCC(=O)OC [methyl eicosanoate]
323.15 K
  viscosity: 4.832 ± 0.061 mPa·s
  mass density: 842.3 ± 1 kg/m3
328.15 K
  viscosity: 4.323 ± 0.055 mPa·s
  mass density: 838.7 ± 1 kg/m3
333.15 K
  viscosity: 3.889 ± 0.05 mPa·s
  mass density: 834.9 ± 1 kg/m3
338.15 K
  viscosity: 3.517 ± 0.045 mPa·s
  mass density: 831.4 ± 1 kg/m3
343.15 K
  viscosity: 3.196 ± 0.042 mPa·s
  mass density: 827.8 ± 1 kg/m3
348.15 K
  viscosity: 2.918 ± 0.038 mPa·s
  mass density: 824.3 ± 1 kg/m3
353.15 K
  viscosity: 2.674 ± 0.035 mPa·s
  mass density: 820.8 ± 1 kg/m3
358.15 K
  viscosity: 2.461 ± 0.033 mPa·s
  mass density: 817.3 ± 1 kg/m3
363.15 K
  viscosity: 2.273 ± 0.031 mPa·s
  mass density: 813.8 ± 1 kg/m3
368.15 K
  viscosity: 2.107 ± 0.029 mPa·s
  mass density: 810.4 ± 1 kg/m3
373.15 K
  viscosity: 1.959 ± 0.027 mPa·s
  mass density: 807 ± 1 kg/m3

## CCCCCCCCCCCCCCCCCCCCCCCC(=O)OC [methyl tetracosanoate]
338.15 K
  viscosity: 5.139 ± 0.068 mPa·s
  mass density: 830.5 ± 1 kg/m3
343.15 K
  viscosity: 4.628 ± 0.062 mPa·s
  mass density: 827.1 ± 1 kg/m3
348.15 K
  viscosity: 4.189 ± 0.056 mPa·s
  mass density: 823.7 ± 1 kg/m3
353.15 K
  viscosity: 3.81 ± 0.051 mPa·s
  mass density: 820.3 ± 1 kg/m3
358.15 K
  viscosity: 3.48 ± 0.047 mPa·s
  mass density: 816.9 ± 1 kg/m3
363.15 K
  viscosity: 3.19 ± 0.044 mPa·s
  mass density: 813.5 ± 1 kg/m3
368.15 K
  viscosity: 2.933 ± 0.041 mPa·s
  mass density: 810.1 ± 1 kg/m3
373.15 K
  viscosity: 2.707 ± 0.038 mPa·s
  mass density: 806.8 ± 1 kg/m3

Reference: the NIST ThermoML archive (doi:10.1021/je1012235)
